Reference: PubChem BioAssay (NCI)
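Each compound was tested at five concentrations against cells in 96-well plates for 48 hours. At the TGI there is no net growth.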

Columns and labels:
Experiment in all cases: inhibition of tumour cell growth, NCI panel, 48 h
SK-OV-3 ovarian = system: SK-OV-3 ovarian
CAKI-1 renal = system: CAKI-1 renal
HCC-2998 colon = system: HCC-2998 colon
NCI-H522 lung = system: NCI-H522 lung
786-0 renal = system: 786-0 renal
NCI-H226 lung = system: NCI-H226 lung
OVCAR-3 ovarian = system: OVCAR-3 ovarian
NCI/ADR-RES ovarian = system: NCI/ADR-RES ovarian
A549 NSCLC = system: A549 NSCLC
SN12C renal = system: SN12C renal
A498 renal = system: A498 renal
NCI-H23 lung = system: NCI-H23 lung
SK-MEL-2 melanoma = system: SK-MEL-2 melanoma
PC-3 prostate = system: PC-3 prostate
SK-MEL-5 melanoma = system: SK-MEL-5 melanoma
UACC-257 melanoma = system: UACC-257 melanoma
OVCAR-5 ovarian = system: OVCAR-5 ovarian
EKVX NSCLC = system: EKVX NSCLC
LOX IMVI melanoma = system: LOX IMVI melanoma
HS 578T breast = system: HS 578T breast

Structure (SMILES)	TGI (SK-OV-3 ovarian) [µM]	TGI (CAKI-1 renal) [µM]	TGI (HCC-2998 colon) [µM]	TGI (NCI-H522 lung) [µM]	TGI (786-0 renal) [µM]	TGI (NCI-H226 lung) [µM]	TGI (OVCAR-3 ovarian) [µM]	TGI (NCI/ADR-RES ovarian) [µM]	TGI (A549 NSCLC) [µM]	TGI (SN12C renal) [µM]	TGI (A498 renal) [µM]	TGI (NCI-H23 lung) [µM]	TGI (SK-MEL-2 melanoma) [µM]	TGI (PC-3 prostate) [µM]	TGI (SK-MEL-5 melanoma) [µM]	TGI (UACC-257 melanoma) [µM]	TGI (OVCAR-5 ovarian) [µM]	TGI (EKVX NSCLC) [µM]	TGI (LOX IMVI melanoma) [µM]	TGI (HS 578T breast) [µM]
C=CCOC(=O)C1=C(CCC[C@@H](C)O[Si](C)(C)C(C)(C)C)N=C(N)N2[C@H](CCO)CC[C@@H]12	27.2	26.1	35.5	25.2	33.8	33.9	23.5	35	22	31.7	35.7	32.4	30.3	20.8	24.9	38.7	–	–	–	–
O=C(OCc1ccccc1)N(CCCCN(CCCNCc1ccccc1)C(=O)OCc1ccccc1)CCCNCc1ccccc1	> 100	2.93	0.933	–	1.29	2.07	–	3.43	–	0.886	–	3.4	2.27	2.61	> 100	1.92	2.83	2.94	–	–
C1CC[C@H]2SSC3CCCC[C@H]3SSC2C1 (stereo partly specified)	> 100	–	> 100	> 100	> 100	–	> 100	> 100	> 100	> 100	–	> 100	–	> 100	> 100	> 100	> 100	> 100	> 100	–
COc1cccc(NC(=O)C(=O)C(C(=O)c2ccccc2F)C2OC(=O)c3ccccc32)c1 (stereo unspecified)	> 100	> 100	39.2	40.7	–	63.5	–	–	> 100	> 100	> 100	98.1	75.2	–	> 100	> 100	> 100	> 100	63.3	–
C/C(=N\Nc1nc2cccnc2s1)c1ccccn1	2.79	12.2	3.18	–	> 100	–	–	0.06	> 34.8	> 100	> 100	0.949	> 34.6	30.6	9.02	–	> 64.4	5.73	–	–
CC1CCC2(CC1)NC1=C(CC(C)CC1)C1=C2CC(C)CC1 (stereo unspecified)	> 100	54.5	45.1	40	39.1	30.8	37.4	–	> 100	–	> 100	59	57.8	47.9	24.4	72.9	57.9	> 100	34.9	63.2
CCCCCC/C=C1\CCC(CN2CCOCC2)C1=O (stereo unspecified)	> 79.4	31.4	35.3	19.4	8.75	30	32.7	–	> 67.3	33.4	35.2	31.7	33.4	–	38.4	29.3	37.4	19.1	25.1	–
O=C(NCCNCCCNC(=O)c1cc(-c2ccccc2)nc2ccccc12)c1cccc(OCc2ccccc2)c1OCc1ccccc1	3.1	3.01	2.59	3.12	3.09	3.35	3.36	3.51	3.15	3.24	2.98	3.35	–	3.04	3.12	3.28	3.37	3.1	2.95	–
COC(=O)C1(C(=O)OC)N=C(C)OC1/C=C/c1ccccc1 (stereo unspecified)	> 100	> 100	> 100	–	> 100	> 100	> 100	> 100	> 100	> 100	> 100	> 100	> 100	> 100	> 100	> 100	> 100	> 100	> 100	–
COC(=O)C1=C(C(=O)OC)SC2(S1)C(C(=O)OC)=C(C(=O)OC)Sc1c2ssc1=Nc1ccc(Cl)cc1	4.29	2.21	1.02	–	1.69	3.38	2.71	–	3.13	1.8	3.15	4.13	1.36	1.71	2.96	2.3	2.81	2.8	1.16	> 100
COC1(O)c2cccc(Cl)c2C(=O)N1C1(C(N)=O)CCCCC1 (stereo unspecified)	> 100	> 100	> 100	> 100	–	> 100	> 100	> 100	> 100	> 100	> 100	> 53.1	> 100	–	> 100	> 100	> 100	> 100	> 100	–
O=C(O)c1ccc(C2SCc3nc4ccccc4n32)cc1 (stereo unspecified)	–	> 100	> 100	> 100	> 100	> 100	> 100	–	> 100	> 100	> 100	> 100	> 100	> 100	> 100	> 100	> 100	> 100	–	> 100
COc1ccc(C2C3CCc4ccccc4C3=NN2S(=O)(=O)c2ccc(/C=C/C(=O)O)cc2)cc1 (stereo unspecified)	4.72	> 100	–	7.04	15.9	74.7	86.3	–	54.4	> 100	–	1.87	9.79	> 100	18.6	–	> 100	> 100	24.5	–
O=C(O)C12CCCCC1CCCC2 (stereo unspecified)	> 100	> 100	> 100	> 100	–	> 100	> 100	–	> 100	> 100	> 100	> 100	–	–	> 100	–	> 100	> 100	> 100	–
Brc1ccc2c(c1)-c1nc3nc4c(cc3cc1CC2)CCc1ccc(Br)cc1-4	> 100	> 100	> 100	> 100	> 100	> 100	> 100	> 100	> 100	> 100	> 100	> 100	> 100	> 100	> 100	> 100	> 100	> 100	> 100	–
O=C1C(Cl)N(c2cccc([N+](=O)[O-])c2)C1c1c[nH]c2ccccc12 (stereo unspecified)	38	–	–	48.7	–	–	54.8	–	56.3	> 100	–	85.9	27.5	–	34.5	49	37.4	96.8	–	–
CC(=O)NC(Cc1ccsc1)C(=O)O (stereo unspecified)	> 100	> 100	> 100	> 100	–	> 100	> 100	> 100	> 100	> 100	> 100	> 100	> 100	–	> 100	> 100	> 100	> 100	> 100	–
CSC12c3cc(C)n(-c4ccccc4)c3CC(C)(C)CN1C(=O)C2Oc1ccccc1 (stereo unspecified)	–	> 100	> 100	–	> 100	> 100	> 100	> 100	86.4	> 100	> 100	> 100	> 100	> 100	> 100	> 100	> 100	> 100	> 100	–
CC(=O)Nc1nnc(S(C)(=O)=O)s1	–	–	–	–	> 100	> 100	> 100	> 100	> 100	> 100	> 100	> 100	–	> 100	–	> 100	> 100	> 100	–	–
CC(C)(C)C1=CC(=C2C(=O)C(=O)c3ccccc3C2=O)C=C(C(C)(C)C)C1=O	> 100	> 100	> 100	37.9	> 100	–	> 100	–	> 100	> 100	0.93	> 100	> 100	–	> 100	80.2	> 100	> 100	> 100	–
COC(=O)/C=C/C1(O)C=CC(=O)C=C1	42.2	4.46	21	0.598	5.36	47.1	4.93	> 68.2	> 47.8	3.32	> 60.2	17.5	19.1	9.53	17.6	13.6	12	10.4	4.74	–
Cc1cc(S(=O)(=O)/N=C(/[N-]S(=O)(=O)c2ccc(Cl)cc2)[n+]2ccc(N(C)C)cc2)c(SCC(=O)O)cc1Cl	> 100	> 100	–	–	> 100	> 100	> 100	–	> 100	> 100	> 100	> 100	–	> 100	–	> 100	> 100	> 100	> 100	> 100
Cc1c2ccncc2c(C)c2c1[nH]c1ccc(OCC(F)(F)F)cc12	3.31	3.66	–	3.22	2.9	3.24	3.29	–	3.3	2.78	–	3.14	3.19	–	3.35	3.42	2.86	3.09	3.09	–
COc1cc(C2C(Cl)C(=O)N2NC(=O)c2ccc(N)cc2)cc(Br)c1O (stereo unspecified)	73	30.7	24.3	3.4	26	46.2	20.8	–	42.8	33.4	59	35.1	32.3	–	31.7	35.9	38.8	31	11	–
O=C1CSC(c2c[nH]c3ccccc23)N1c1ccccc1[N+](=O)[O-] (stereo unspecified)	> 100	–	> 100	> 100	> 100	–	> 100	–	> 100	> 100	–	> 100	–	> 100	> 100	> 100	> 100	> 100	> 100	–
COC(=O)C(C/C=C(\C)c1ccc(Cl)cc1)C(C)=O (stereo unspecified)	> 100	–	> 100	92.3	–	> 91	> 100	63.1	> 90.6	> 100	> 100	> 100	32.9	–	51.7	> 71.3	> 90.3	> 100	28.1	–
O=Cc1ccc(CCl)cc1	51.7	–	–	35.9	–	–	34.9	–	> 100	–	85.8	–	32.2	–	30.2	36.5	38.8	> 100	28	–
CSc1nc2c(ncn2C2OCC(O)C(O)C2O)c(=O)n1C (stereo unspecified)	> 100	–	> 100	> 100	–	> 100	> 100	> 100	> 100	> 100	> 100	> 100	> 100	–	> 100	> 100	> 100	> 100	> 100	–
CN1CCC2(CC1)C(=NC1CCCCC1)NC(=S)N2c1ccccc1	> 100	–	> 100	–	> 100	> 100	–	> 100	> 100	> 100	> 100	> 100	–	–	> 100	> 100	> 100	> 100	> 100	88.3
